According to article PMC9705858, “Anti-Endotoxin 9-Meric Peptide with Therapeutic Potential for the Treatment of Endotoxemia” (Journal of Microbiology and Biotechnology, 2020):
Converted amounts (≈) assume the structure as drawn. Where two headings read alike, the source gives them in different places. Non-standard residues stand in square brackets, D forms with d. Residues, ends and D or L forms follow the SMILES beside them.

Key:
[1] = tested on: gram-negative bacterial strains and MDR bacterial strains; assay: Geometric mean of MICs over all tested bacterial strains and relative selective index; format: cell-based, Escherichia coli, Acinetobacter baumannii; conditions: larger values indicate greater cell selectivity
Experimental: The geometric means (GM) of MICs were assessed to evaluate the antibacterial activities of Pro9-3 series against tested bacterial strains.

[2] = tested on: MDR Escherichia coli CCARM 1238; format: cell-based; conditions: MDREC 1238; 99% growth inhibition; 2 × 10^5 CFU/ml, 37°C, 16 h, A600
From the text: (§1) The gram-negative bacterial strains Escherichia coli (KCTC 1682) and Acinetobacter baumannii (KCCM 40203) were purchased from the Korean Collection for Type Cultures (Korea) and the Korean Culture Center of Microorganisms (Korea), respectively. The MDR gram-negative strains Escherichia coli CCARM 1229, Escherichia coli CCARM 1238, Acinetobacter baumannii CCARM 12010, and Acinetobacter baumannii CCARM 12220 were obtained from the Culture Collection of Antibiotic-Resistant Microbes at Seoul Women’s University (South Korea).
(§2) The antibacterial properties of all peptides were determined by measuring the Minimum Inhibitory Concentration (MIC) as described previously. […] Two-fold serial dilutions of respective peptides were inoculated in 96-well plates in Mueller-Hinton medium, followed by the addition of bacterial suspensions (2 × 10^5 CFU/ml) at the log growth phase. The plates were incubated at 37°C for 16 h, and absorbance was read at 600 nm using a SpectraMAX microplate reader (Molecular Devices, USA).

[3] = tested on: Acinetobacter baumannii (KCCM 40203); format: cell-based
From the text: as §1, §2

[4] = tested on: MDR Escherichia coli CCARM 1229; format: cell-based; conditions: MDREC 1229; 99% growth inhibition; 2 × 10^5 CFU/ml, 37°C, 16 h, A600
From the text: as §1, §2

[5] = tested on: MDR Acinetobacter baumannii CCARM 12010; format: cell-based; conditions: MDRAB 12010; 99% growth inhibition; 2 × 10^5 CFU/ml, 37°C, 16 h, A600
From the text: as §1, §2

[6] = tested on: MDR Acinetobacter baumannii CCARM 12220; format: cell-based; conditions: MDRAB 12220; 99% growth inhibition; 2 × 10^5 CFU/ml, 37°C, 16 h, A600
From the text: as §1, §2

sheep red blood cells = assay: Hemolysis of sheep red blood cells; format: cell-based
Experimental: (§3) The capacity of peptides in the lysis of erythrocytes was analyzed using sheep red blood cells (RBCs) as described previously. Cytotoxicity was further assessed in mouse macrophage RAW264.7 cells, which were cultured in Dulbecco’s modified Eagle medium (Thermo Fischer Scientific Inc., USA) enriched with fetal bovine serum (10%) and antibiotics (penicillin/streptomycin, 100 IU/ 100 mg/L) at 37°C in a CO2 incubator. The cytotoxic effect of Pro9-3 series peptides against RAW264.7 cells was then determined using WST-8 Cell Proliferation Assay Kit (Biomax Co. Ltd., Korea). The analysis was carried out according to our previously reported method.

RAW264.7 cells = assay: Cytotoxicity, WST-8 cell proliferation assay; format: cell-based, mouse; conditions: 24 h, mean of three experiments
Experimental: as §3
Fig. 1 Cytotoxicities of peptides. (A) Dose-dependent hemolytic activities in sheep red blood cell (sRBC) caused by peptides. (B) Dose-response cytotoxicities of the Pro9-3 and its analogs against RAW264.7 cells for 24 h. Melittin was used as a positive control. The values are expressed as the mean ± SEM of three independent experiments: *p < 0.05; **p < 0.01; ***p < 0.001; ns, not significant.

[7] = tested on: Escherichia coli (KCTC 1682); format: cell-based
From the text: as §1, §2

[8] = Limulus amebocyte lysate (LAL) assay, LPS neutralization; format: biochemical, Escherichia coli; conditions: 50 μM peptide, 2 ng/ml LPS, 15 min at 37°C
Experimental: To check the endotoxin clearance properties of peptides, LAL assay was performed according to the protocol provided in the kit (Pierce LAL Chromogenic Endotoxin Quantitation Kit, Thermo Fisher Scientific). Escalating concentrations of peptides (up to 50 μM) were added with 2 ng/ml LPS (E. coli O111:B4, Sigma-Aldrich, USA) for 15 min at 37°C. To this content, an equal volume of LAL reagent was added and incubated for 15 min and then chromogenic substrate was added. The contents were incubated for another 10 min and 25% acetic acid was used to stop the reaction. The end color (yellow) formed due to […] of substrate was read at 405 nm. LL-37 was used as a control.

[9] = A. baumannii KCCM 40203, 99% growth inhibition, 2 × 10^5 CFU/ml, 37°C, 16 h, A600
[10] = E. coli KCTC 1682, 99% growth inhibition, 2 × 10^5 CFU/ml, 37°C, 16 h, A600

Row | Compound | Relative selective index (HC10/GM of the MIC) [1] | Minimal inhibitory concentration (MIC) [2] | Minimal inhibitory concentration (MIC) [3, 9] | Minimal inhibitory concentration (MIC) [4] | Minimal inhibitory concentration (MIC) [5] | Minimal inhibitory concentration (MIC) [6] | Hemolytic activity in sRBC (in words) (sheep red blood cells; escalated dose of peptides, Fig. 1A) | Survival of RAW264.7 macrophage cells (RAW264.7 cells; 50 μM peptide) | Minimal inhibitory concentration (MIC) ([3]; KCCM 40203, 16 h) | Minimal inhibitory concentration (MIC) [7, 10] | HC10 (peptide concentration which induces 10% hemolysis) (sheep red blood cells) | LPS neutralization (LAL assay) [8] | Survival of RAW264.7 macrophage cells (RAW264.7 cells; 100 μM peptide) | Minimal inhibitory concentration (MIC) ([7]; KCTC 1682, 16 h)
1 | CC[C@H](C)[C@H](NC(=O)CN)C(=O)NCC(=O)N[C@@H](C)C(=O)N[C@H](C(=O)N[C@@H](CC(C)C)C(=O)N[C@@H](CCCCN)C(=O)N[C@H](C(=O)N[C@@H](CC(C)C)C(=O)N[C@H](C(=O)N[C@H](C(=O)NCC(=O)N[C@@H](CC(C)C)C(=O)N1CCC[C@H]1C(=O)N[C@@H](C)C(=O)N[C@@H](CC(C)C)C(=O)N[C@H](C(=O)N[C@@H](CO)C(=O)N[C@@H](Cc1c[nH]c2ccccc12)C(=O)N[C@H](C(=O)N[C@@H](CCCCN)C(=O)N[C@@H](CCCNC(=N)N)C(=O)N[C@@H](CCCCN)C(=O)N[C@@H](CCCNC(=N)N)C(=O)N[C@@H](CCC(N)=O)C(=O)N[C@@H](CCC(N)=O)C(N)=O)[C@@H](C)CC)[C@@H](C)CC)[C@@H](C)O)[C@@H](C)O)C(C)C)C(C)C [Melittin, reference compound] | 0.06 | 32 µM (≈ 91.1 µg/mL) | 8 µM (≈ 22.8 µg/mL) | 16 µM (≈ 45.5 µg/mL) | 8 µM (≈ 22.8 µg/mL) | 8 µM (≈ 22.8 µg/mL) | severe cytotoxicity even at low concentration | – | – | – | – | – | – | –
2 | CC[C@@H](C)[C@@H](NC(=O)[C@@H](C)NC(=O)[C@@H](CC(C)C)NC(=O)[C@@H](Cc1c[nH]c2ccccc12)NC(=O)[C@@H](CC(C)C)NC(=O)[C@H](N)CCCNC(=N)N)C(=O)N[C@H](Cc1c[nH]c2ccccc12)C(=O)N[C@H](CCCNC(=N)N)C(=O)N[C@H](CCCNC(=N)N)C(N)=O [Pro9-3D] (H-[dR][dL][dW][dL][dA][dI][dW][dR][dR]-NH2) | – | 4 µM (≈ 5.07 µg/mL) | – | 8 µM (≈ 10.1 µg/mL) | 8 µM (≈ 10.1 µg/mL) | 8 µM (≈ 10.1 µg/mL) | – | 40% | 4 µM (≈ 5.07 µg/mL) | 8 µM (≈ 10.1 µg/mL) | 200 µM | – | – | –
3 | LL-37 | – | – | – | – | – | – | – | – | – | – | – | 91% | – | –
4 | CC[C@H](C)[C@H](NC(=O)[C@H](C)NC(=O)[C@H](CC(C)C)NC(=O)[C@H](Cc1c[nH]c2ccccc12)NC(=O)[C@H](CC(C)C)NC(=O)[C@@H](N)CCCNC(=N)N)C(=O)N[C@@H](Cc1c[nH]c2ccccc12)C(=O)N[C@@H](CCCNC(=N)N)C(=O)N[C@@H](CCCNC(=N)N)C(N)=O [Pro9-3] (H-RLWLAIWRR-NH2) | – | 32 µM (≈ 40.6 µg/mL) | – | 16 µM (≈ 20.3 µg/mL) | 16 µM (≈ 20.3 µg/mL) | 16 µM (≈ 20.3 µg/mL) | – | – | 16 µM (≈ 20.3 µg/mL) | – | 200 µM | – | 100% | 16 µM (≈ 20.3 µg/mL)
5 | CC[C@@H](C)[C@@H](NC(=O)[C@@H](C)NC(=O)[C@@H](CC(C)C)NC(=O)[C@@H](Cc1c[nH]c2ccccc12)NC(=O)[C@@H](CC(C)C)NC(=O)[C@H](N)CCCCN)C(=O)N[C@H](Cc1c[nH]c2ccccc12)C(=O)N[C@H](CCCCN)C(=O)N[C@H](CCCCN)C(N)=O [Pro9-3D-K] (H-[dK][dL][dW][dL][dA][dI][dW][dK][dK]-NH2) | – | 16 µM (≈ 19 µg/mL) | 32 µM (≈ 37.9 µg/mL) | 32 µM (≈ 37.9 µg/mL) | 32 µM (≈ 37.9 µg/mL) | 32 µM (≈ 37.9 µg/mL) | – | 71% | – | 16 µM (≈ 19 µg/mL) | – | – | – | –
6 | CC[C@H](C)[C@H](NC(=O)[C@H](C)NC(=O)[C@H](CC(C)C)NC(=O)[C@H](Cc1c[nH]c2ccccc12)NC(=O)[C@H](CC(C)C)NC(=O)[C@@H](N)CCCCN)C(=O)N[C@@H](Cc1c[nH]c2ccccc12)C(=O)N[C@@H](CCCCN)C(=O)N[C@@H](CCCCN)C(N)=O [Pro9-3-K] (H-KLWLAIWKK-NH2) | – | 64 µM (≈ 75.8 µg/mL) | 64 µM (≈ 75.8 µg/mL) | 64 µM (≈ 75.8 µg/mL) | 64 µM (≈ 75.8 µg/mL) | 64 µM (≈ 75.8 µg/mL) | – | – | – | 64 µM (≈ 75.8 µg/mL) | – | – | 100% | –
